The values that follow come from the supplement of paper PMC10307832.

Common to all, as to experiment: relative viability (nuclei count vs DMSO), 5 days (fraction); higher = more cells survive
Compound in the assay “Sulindac + Pictilisib”: CC1=C(CC(=O)O)c2cc(F)ccc2/C1=C\c1ccc([S+](C)[O-])cc1 [Sulindac] + CS(=O)(=O)N1CCN(Cc2cc3nc(-c4cccc5[nH]ncc45)nc(N4CCOCC4)c3s2)CC1 [Pictilisib] (partner 1 µM)
A digest of the protocol:
(§1)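 A single step with final 0.05% Triton X-100, 1% formaldehyde and 1 ug/ml Hoechst fixed the cells and stained nuclei 5 days after treatment. Lung cancer cell lines in 1536-well plates had been treated by pin tool the day after seeding with one drug alone or a fixed anchor-drug dose plus five library-drug doses (not always all listed) in √10 steps, and nuclei were counted on 4× images. Relative viability is the ratio of nuclei in treated wells to nuclei in vehicle wells, taken as the median of duplicate plates.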

Compound in assay [1]: CN[C@@H]1C[C@H]2O[C@@](C)([C@@H]1OC)n1c3ccccc3c3c4c(c5c6ccccc6n2c5c31)C(=O)NC4 [Staurosporine] + Nc1ncn([C@H]2C[C@H](O)[C@@H](CO)O2)c(=O)n1 [Decitabine] (partner 2 µM)
A digest of the protocol:
as §1

Compound in assay [2]: O=c1[nH]cc(F)c(=O)[nH]1 [5-Fluorouracil] + CS(=O)(=O)N1CCN(Cc2cc3nc(-c4cccc5[nH]ncc45)nc(N4CCOCC4)c3s2)CC1 [Pictilisib] (partner 1 µM)
In short, it runs like this: as §1

Compound in assay [3]: O=c1[nH]cc(F)c(=O)[nH]1 [5-Fluorouracil] + C[C@]1(O)C[C@@H](c2nc(-c3ccc4ccc(-c5ccccc5)nc4c3)c3c(N)nccn32)C1 [Linsitinib] (partner 1 µM)
In short, it runs like this:
as §1

On to UMC-11, for which the relative viability was 1.18 with Sulindac + Pictilisib (first compound 0.08 µM); 0.816 with Sulindac + Pictilisib (first compound 0.253 µM); 0.704 in the assay with Sulindac + Pictilisib (first compound 0.8 µM); 0.667 in the assay with Sulindac + Pictilisib (first compound 2.53 µM); 0.793 with Sulindac + Pictilisib (first compound 8 µM); 0.76 in assay [1] (first compound 0.005 µM). Further, the relative viability in assay [1] (first compound 0.05 µM) stood at 0.192; in assay [1] (first compound 0.1581 µM) it was 0.153; in assay [1] (first compound 0.5 µM) it was 0.371; in assay [2] (first compound 0.02 µM), 0.834; in assay [2] (first compound 0.2 µM), 0.601; in assay [2] (first compound 0.6325 µM), 0.397. The relative viability in assay [2] (first compound 2 µM) was found to be 0.36; in assay [3] (first compound 0.02 µM) it was 0.969; in assay [3] (first compound 0.2 µM) it was 0.674; in assay [3] (first compound 0.6325 µM) it was 0.512; in assay [3] (first compound 2 µM), 0.363.
